# Reference: PubChem BioAssay AID330 (DTP/NCI, 2004)
# Values joined by “and” are separate entries in the source; they are usually repeats but may differ in a detail not shown here. Equal values may be shown once. Inconclusive results and toxic doses are left out.
# System: P388 leukemia ip, CD2F1 mice, survival T/C
# Assay: NCI In Vivo Anticancer Drug Screen. Data for tumor model P388 Leukemia (intraperitoneal) in CD2F1 (CDF1) mice
# Conditions: endpoint: median survival time, higher = longer survival
# Procedure, shortened: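 Mice carrying the transplanted tumor received test compound or vehicle. Survival was recorded in each group, and the value is the treated-group measurement divided by that of the vehicle-treated control group.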
# [1] = dose: 60.0 mg/kg/injection, schedule: Q01DX005 (ip), vehicle: saline with Tween-80
# [2] = dose: 120.0 mg/kg/injection, schedule: Q01DX005 (ip), vehicle: saline with Tween-80
# [3] = dose: 240.0 mg/kg/injection, schedule: Q01DX005 (ip), vehicle: saline with Tween-80
# [4] = dose: 50.0 mg/kg/injection, schedule: Q01DX005 (ip), vehicle: saline with Tween-80
# [5] = dose: 100.0 mg/kg/injection, schedule: Q01DX005 (ip), vehicle: saline with Tween-80
# [6] = dose: 200.0 mg/kg/injection, schedule: Q01DX005 (ip), vehicle: saline with Tween-80
# [7] = dose: 60.0 mg/kg/injection, schedule: Q01DX005 (ip), vehicle: Klucel (hydroxypropylcellulose) (HPC)
# [8] = dose: 120.0 mg/kg/injection, schedule: Q01DX005 (ip), vehicle: Klucel (hydroxypropylcellulose) (HPC)
# [9] = dose: 12.5 mg/kg/injection, schedule: Q01DX009 (ip), vehicle: saline
# [10] = dose: 50.0 mg/kg/injection, schedule: Q01DX009 (ip), vehicle: saline with Tween-80
# [11] = dose: 50.0 mg/kg/injection, schedule: Q01DX005 (ip), vehicle: saline
# [12] = dose: 100.0 mg/kg/injection, schedule: Q01DX005 (ip), vehicle: saline
# [13] = dose: 60.0 mg/kg/injection, schedule: Q01DX005 (ip), vehicle: saline
# [14] = dose: 120.0 mg/kg/injection, schedule: Q01DX005 (ip), vehicle: saline
# [15] = dose: 240.0 mg/kg/injection, schedule: Q01DX005 (ip), vehicle: saline
smiles,measurement,setting,value
OC1c2cccn2-c2cc(Cl)ccc2SC1c1ccccc1 (configuration not stated),T/C,[1],99 % of control
same,T/C,[2],101 % of control
same,T/C,[3],100 % of control
O=CNc1c2ccccc2c(NC=O)c2ccccc12,T/C,[4],92 % of control
same,T/C,[5],88 % of control
same,T/C,[6],101 % of control
Nc1nc(-c2ccccn2)cc(-c2cc(-c3ccccn3)nc(N)n2)n1,T/C,[7],102 % of control
same,T/C,[8],112 % of control
Cc1ccc(-c2cn3nc(-c4ccc5c(c4)OCO5)sc3n2)cc1,T/C,[1],92 % of control
same,T/C,[2],99 % of control and 89 % of control
same,T/C,[3],87 % of control
O=S(=O)(O)C1CC2C(c3ccccc31)N1ON2O1 (configuration not stated),T/C,[4],102 % of control
same,T/C,[5],100 % of control
same,T/C,[6],100 % of control
O=C(N/N=C/c1cccc2ccccc12)c1cccnc1,T/C,"dose: 6.25 mg/kg/injection, schedule: Q01DX009 (ip), vehicle: saline",100 % of control
same,T/C,[9],89 % of control
same,T/C,"dose: 100.0 mg/kg/injection, schedule: Q01DX009 (ip), vehicle: saline",98 % of control
O=C(Nc1c(Cl)cccc1Cl)OCCOc1ccc(Cl)cc1Cl,T/C,[7],99 % of control
same,T/C,[8],96 % of control
same,T/C,"dose: 240.0 mg/kg/injection, schedule: Q01DX005 (ip), vehicle: Klucel (hydroxypropylcellulose) (HPC)",99 % of control
CC(C)(C)SC(=O)CC1(O)CCCCC1,T/C,"dose: 25.0 mg/kg/injection, schedule: Q04DX002 (ip), vehicle: Klucel (hydroxypropylcellulose) (HPC)",98 % of control
same,T/C,"dose: 50.0 mg/kg/injection, schedule: Q04DX002 (ip), vehicle: Klucel (hydroxypropylcellulose) (HPC)",100 % of control
same,T/C,"dose: 100.0 mg/kg/injection, schedule: Q04DX002 (ip), vehicle: Klucel (hydroxypropylcellulose) (HPC)",100 % of control
COc1ccc(C2(O)CC3CCC(C2)N3C)cc1 (configuration not stated),T/C,[4],93 % of control
same,T/C,[5],100 % of control
same,T/C,[6],97 % of control
CN(C)c1ccc(/C=C/c2ccnc3c(O)ccc(O)c23)cc1,T/C,"dose: 12.5 mg/kg/injection, schedule: Q01DX009 (ip), vehicle: saline with Tween-80",91 % of control
same,T/C,"dose: 25.0 mg/kg/injection, schedule: Q01DX009 (ip), vehicle: saline with Tween-80",94 % of control
same,T/C,[10],92 % of control
CC(C)C1=CC23CCC4C(C)(C(N)=O)CCCC4(C)C2CC1C1C(=O)OC(=O)C13 (configuration not stated),T/C,"dose: 100.0 mg/kg/injection, schedule: Q01DX001 (ip), vehicle: saline with Tween-80",91 % of control
CC(=NCc1ccccc1)NO,T/C,[11],97 % of control
same,T/C,[12],96 % of control
S=C1NCC(c2ccc(Cl)cc2)[Se]1 (configuration not stated),T/C,"dose: 50.0 mg/kg/injection, schedule: Q01DX009 (ip), vehicle: DMSO",100 % of control
same,T/C,"dose: 100.0 mg/kg/injection, schedule: Q01DX009 (ip), vehicle: DMSO",100 % of control
CNc1cccc2c1C(=O)c1ccccc1C2=O,T/C,"dose: 50.0 mg/kg/injection, schedule: Q04DX003 (ip), vehicle: saline with Tween-80",93 % of control
same,T/C,"dose: 100.0 mg/kg/injection, schedule: Q04DX003 (ip), vehicle: saline with Tween-80",91 % of control
same,T/C,"dose: 200.0 mg/kg/injection, schedule: Q04DX003 (ip), vehicle: saline with Tween-80",97 % of control
same,T/C,"dose: 400.0 mg/kg/injection, schedule: Q04DX003 (ip), vehicle: saline with Tween-80",90 % of control
C[Si](C)(C)C#CC(C(O)c1ccccc1)N1CCCC1 (configuration not stated),T/C,"dose: 100.0 mg/kg/injection, schedule: Q04DX003 (ip), vehicle: saline",94 % of control
same,T/C,"dose: 200.0 mg/kg/injection, schedule: Q04DX003 (ip), vehicle: saline",92 % of control
same,T/C,"dose: 400.0 mg/kg/injection, schedule: Q04DX003 (ip), vehicle: saline",101 % of control
N#CC1=C(C#N)C(=O)C(Br)=C(Br)C1=O,T/C,"dose: 12.5 mg/kg/injection, schedule: Q01DX005 (ip), vehicle: Klucel + Tween-80",108 % of control
same,T/C,"dose: 25.0 mg/kg/injection, schedule: Q01DX005 (ip), vehicle: Klucel + Tween-80",106 % of control
same,T/C,"dose: 50.0 mg/kg/injection, schedule: Q01DX005 (ip), vehicle: Klucel + Tween-80",108 % of control
CN(C)C1C(O)C2Oc3c(cc(O)c4c3C(=O)c3cc5c(c(O)c3C4=O)C(N=[N+]=N)CC(C)(O)C5)C(C)(O2)C1O (configuration not stated),T/C,"dose: 0.31 mg/kg/injection, schedule: Q01DX009 (ip), vehicle: other",107 % of control
same,T/C,"dose: 0.62 mg/kg/injection, schedule: Q01DX009 (ip), vehicle: other",107 % of control
same,T/C,"dose: 1.25 mg/kg/injection, schedule: Q01DX009 (ip), vehicle: other",108 % of control
same,T/C,"dose: 10.0 mg/kg/injection, schedule: Q01DX009 (ip), vehicle: other",120 % of control
COC1=C(C)C2CC(=O)OC3C(O)C4C(C)CC(O)C(=O)C4(C)C(C1=O)C23C (configuration not stated),T/C,"dose: 3.0 mg/kg/injection, schedule: Q01DX009 (ip), vehicle: alcohol",105 % of control
same,T/C,"dose: 6.0 mg/kg/injection, schedule: Q01DX009 (ip), vehicle: alcohol",104 % of control
same,T/C,"dose: 12.0 mg/kg/injection, schedule: Q01DX009 (ip), vehicle: alcohol",107 % of control
c1ccc(Cc2cc[n+](Cc3ccccc3)cc2)cc1,T/C,[9],100 % of control
same,T/C,"dose: 25.0 mg/kg/injection, schedule: Q01DX009 (ip), vehicle: saline",101 % of control
same,T/C,"dose: 50.0 mg/kg/injection, schedule: Q01DX009 (ip), vehicle: saline",101 % of control and 89 % of control
Cc1nc2c([N+](=O)[O-])cc(C(=O)O)cc2[nH]1,T/C,[13],100 % of control
same,T/C,[14],97 % of control
same,T/C,[15],87 % of control
CC12CCC(=O)OC1(CO)C([Se]c1ccccc1)CC2CC(N)=O (configuration not stated),T/C,[4],93 % of control
same,T/C,[5],91 % of control
same,T/C,[6],91 % of control
CB1NN=C(C)c2ccsc21,T/C,[10],110 % of control
CCOC(=O)CC12C=CC(CC(=O)OCC)(CC1)n1c(=O)n(C)c(=O)n12,T/C,"dose: 100.0 mg/kg/injection, schedule: Q04DX002 (ip), vehicle: saline with Tween-80",100 % of control
same,T/C,"dose: 200.0 mg/kg/injection, schedule: Q04DX002 (ip), vehicle: saline with Tween-80",100 % of control
same,T/C,"dose: 400.0 mg/kg/injection, schedule: Q04DX002 (ip), vehicle: saline with Tween-80",101 % of control
N#CC1C(C#N)C2(c3ccccc3)C(c3ccccc3)=NN(c3ccccc3)CC12 (configuration not stated),T/C,"dose: 25.0 mg/kg/injection, schedule: Q01DX001 (ip), vehicle: Klucel (hydroxypropylcellulose) (HPC)",91 % of control
same,T/C,"dose: 50.0 mg/kg/injection, schedule: Q01DX001 (ip), vehicle: Klucel (hydroxypropylcellulose) (HPC)",95 % of control
same,T/C,"dose: 100.0 mg/kg/injection, schedule: Q01DX001 (ip), vehicle: Klucel (hydroxypropylcellulose) (HPC)",87 % of control
CC(=O)N1CCN(C(C)=O)C2C1N(C(C)=O)CCN2C(C)=O (configuration not stated),T/C,[11],117 % of control
same,T/C,[13],105 % of control
same,T/C,[12],105 % of control
same,T/C,[14],107 % of control
same,T/C,"dose: 200.0 mg/kg/injection, schedule: Q01DX005 (ip), vehicle: saline",115 % of control
same,T/C,[15],100 % of control
Fc1ccc(-c2nc3ccccn3c2N=Nc2ccccc2)cc1,T/C,[4],88 % of control
same,T/C,[5],97 % of control
same,T/C,[6],94 % of control
CC1/C(=N\N=C(N)N)c2ccccc2/C1=N/N=C(N)N (configuration not stated),T/C,"dose: 25.0 mg/kg/injection, schedule: Q01DX001 (ip), vehicle: saline",106 % of control
same,T/C,"dose: 50.0 mg/kg/injection, schedule: Q01DX001 (ip), vehicle: saline",102 % of control
same,T/C,"dose: 100.0 mg/kg/injection, schedule: Q01DX001 (ip), vehicle: saline",99 % of control
O=C(O)/C=N/NS(=O)(=O)c1ccc2ccccc2c1,T/C,"dose: 50.0 mg/kg/injection, schedule: Q01DX009 (ip), vehicle: other",161 % of control and 164 % of control
same,T/C,"dose: 200.0 mg/kg/injection, schedule: Q01DX009 (ip), vehicle: other",153 % of control
C/C(=N\N=C(/[Se])N1CCN(c2ccc(F)cc2)CC1)c1ccccn1,T/C,"dose: 100.0 mg/kg/injection, schedule: Q04DX003 (ip), vehicle: Klucel (hydroxypropylcellulose) (HPC)",101 % of control
same,T/C,"dose: 200.0 mg/kg/injection, schedule: Q04DX003 (ip), vehicle: Klucel (hydroxypropylcellulose) (HPC)",108 % of control
same,T/C,"dose: 400.0 mg/kg/injection, schedule: Q04DX003 (ip), vehicle: Klucel (hydroxypropylcellulose) (HPC)",100 % of control
Nc1ccc(S(=O)(=O)NC2C(O)OC(CO)C(O)C2O)cc1 (configuration not stated),T/C,[4],98 % of control
same,T/C,[5],96 % of control
same,T/C,[6],97 % of control
